# Source: patent US4112076A, “Epi-daunomycin and epi-adriamycin compounds and method of use” (priority 1975, dated 1978)
# “Also recorded” adds a separate entry of the source. Where two headings read alike, the source gives them in different places.
# How the values were obtained:
# Hela cells = assay: Cloning efficiency of Hela cells in vitro (colony inhibition); type: cell-based; details: Homo sapiens
# Method: After treatment for 2, 8 and 24 hours, Hela cells were seeded (200 cells per plate) and the number of colonies determined 8 days later. The inhibiting dose (ID50) represents the does which produces a 50% inhibition of colonies.
# ^a cloning efficiency of Hela cells
# [1] = test system: Moloney Sarcoma Virus (MSV); assay: Formation of foci by Moloney Sarcoma Virus (MSV) in vitro (antiviral action); type: cell-based; details: Fibroblast, 72 h
# Method: (§1) The test compound was evaluated on mouse embryo fibroblast (MEF) cultures infected with MSV and on similar uninfected cultures. After a treatment of three days the inhibiting doses (ID50) were evaluated on cell proliferation in uninfected cultures (cytotoxic action) and on MSV foci formation in infected cultures (antiviral action).
# ^b inhibition of MSV foci formation
# [2] = Proliferation of uninfected mouse embryo fibroblast (MEF) cultures (cytotoxic action); type: cell-based; details: mouse, mouse embryo fibroblasts
# Method: as §1
# ^c inhibition of mouse embryo fibroblasts proliferation
# L 1210 leukemia = assay: Ascitic leukemia L 1210, treatment i.p. on day 1; type: in vivo, mouse
# Text: (§2) Activity of 4-demethoxy-4'-epi-adriamycin on
# (§3) ascitic leukemias. Treatment i.p. on day 1.
# (§4) ^a Median survival time, % over untreated controls
# (§5) ^b Long term survivors at 60 days
# P 388 leukemia = assay: Ascitic leukemia P 388, treatment i.p. on day 1; type: in vivo, mouse
# Text: as §2, §3, §4, §5
# solid sarcoma 180 = assay: Solid sarcoma 180, treatment i.v. on days 1 to 5; type: in vivo, mouse
# Text: as §2
# solid sarcoma 180. Treatment i.v. on days 1 to 5.
# Average data of 2 experiments.
# ^a Tumor weight on day 11, % over untreated controls.
# Gross leukemia = assay: Gross leukemia, treatment i.v. on days 1 to 3; type: in vivo, mouse
# Text: On Gross leukemia (which is a systemic tumor transplanted i.v.), the increase in the life span of mice treated with the two compounds at equitoxic doses was similar.
# Activity of 4-demethoxy-4'-epi-adriamycin
# on Gross leukemia. Treatment i.v. on days
# Average data of 2 experiments^a.
# ^a See legends to Table 7.
# several in vitro systems = assay: Several in vitro systems, comparison with adriamycin; type: cell-based; details: Table 6
# Method: (§6) The above compound was tested in comparison with adriamycin in several in vitro systems and experimental mouse tumors.
# [3] = test system: experimental mouse tumors; assay: Experimental mouse tumors (overall); type: in vivo; details: compared with adriamycin
# Method: (§7) The test was carried out on groups of 10 mice (Swiss CD1). The compound under examination was administered intraperitoneally in varying doses to the test animals one day after intraperitoneal inoculation with 1×10^6 tumor cells/mouse.
# as §6
# Ascites Sarcoma 180 = Ascites Sarcoma 180 in Swiss CD1 mice, i.p.; type: in vivo, mouse (Swiss CD1); details: 4.5 ng/Kg (so in the source), i.p. one day after inoculation
# Method: as §7, with “In Table 5 the activity of 3'-4'-epi-6'-hydroxyadriamycin on Ascites Sarcoma 180 in mice is reported. The test” for “The test”
# The average survival time is given as percentage of the survival time of untreated animals, which is arbitrarily designated as 100%. The number of long term survivors (LTS) is also reported.
# [4] = read-out: ID50, inhibition of MSV foci formation
smiles,measurement,setting,value
C[C@@H]1O[C@@H](O[C@H]2C[C@](O)(C(=O)CO)Cc3c(O)c4c(c(O)c32)C(=O)c2ccccc2C4=O)C[C@H](N)[C@H]1O [4-demethoxy-4'-epi-adriamycin],IC50,"Hela cells; 2 (hours) treatment, Table 6, read-out: ID50, cloning efficiency of Hela cells",0.35 ng/mL
same,IC50,"Hela cells; 8 (hours) treatment, Table 6, read-out: ID50, cloning efficiency of Hela cells",0.1 ng/mL
same,IC50,"Hela cells; 24 (hours) treatment, Table 6, read-out: ID50, cloning efficiency of Hela cells",0.03 ng/mL
same,IC50,[1]; [4],< 0.003 ng/mL
same,CC50 at 72 h,[2],< 0.003 ng/mL
same,LTS (long term survivors at 60 days),L 1210 leukemia; 0.25 mg/Kg i.p. day 1,0/11
same,"T/C % (median survival time, % over untreated controls)",L 1210 leukemia; 0.25 mg/Kg i.p. day 1,155%
same,Toxic deaths,L 1210 leukemia; 0.25 mg/Kg i.p. day 1,0/11
same,LTS (long term survivors at 60 days),L 1210 leukemia; 0.5 mg/Kg i.p. day 1,2/11
same,"T/C % (median survival time, % over untreated controls)",L 1210 leukemia; 0.5 mg/Kg i.p. day 1,166%
same,Toxic deaths,L 1210 leukemia; 0.5 mg/Kg i.p. day 1,0/11
same,LTS (long term survivors at 60 days),L 1210 leukemia; 1 mg/Kg i.p. day 1,0/11
same,"T/C % (median survival time, % over untreated controls)",L 1210 leukemia; 1 mg/Kg i.p. day 1,133%
same,Toxic deaths,L 1210 leukemia; 1 mg/Kg i.p. day 1,11/11
same,antitumor activity at the optimal (non-toxic) dose vs adriamycin,L 1210 leukemia; L 1210,comparable to that of adriamycin
same,LTS (long term survivors at 60 days),P 388 leukemia; 0.25 mg/Kg i.p. day 1,0/10
same,"T/C % (median survival time, % over untreated controls)",P 388 leukemia; 0.25 mg/Kg i.p. day 1,143%
same,Toxic deaths,P 388 leukemia; 0.25 mg/Kg i.p. day 1,0/10
same,LTS (long term survivors at 60 days),P 388 leukemia; 0.5 mg/Kg i.p. day 1,1/10
same,"T/C % (median survival time, % over untreated controls)",P 388 leukemia; 0.5 mg/Kg i.p. day 1,162%
same,Toxic deaths,P 388 leukemia; 0.5 mg/Kg i.p. day 1,1/10
same,LTS (long term survivors at 60 days),P 388 leukemia; 1 mg/Kg i.p. day 1,0/10
same,"T/C % (median survival time, % over untreated controls)",P 388 leukemia; 1 mg/Kg i.p. day 1,162%
same,Toxic deaths,P 388 leukemia; 1 mg/Kg i.p. day 1,8/10
same,antitumor activity at the optimal (non-toxic) dose vs adriamycin,P 388 leukemia; P 388,comparable to that of adriamycin
same,"T/C % (tumor weight on day 11, % over untreated controls)",solid sarcoma 180; 0.06 mg/Kg i.v. days 1 to 5,87.3%
same,Toxic deaths,solid sarcoma 180; 0.06 mg/Kg i.v. days 1 to 5,0/10
same,"T/C % (tumor weight on day 11, % over untreated controls)",solid sarcoma 180; 0.12 mg/Kg i.v. days 1 to 5,85.1%
same,Toxic deaths,solid sarcoma 180; 0.12 mg/Kg i.v. days 1 to 5,2/16
same,"T/C % (tumor weight on day 11, % over untreated controls)",solid sarcoma 180; 0.25 mg/Kg i.v. days 1 to 5,41.9%
same,Toxic deaths,solid sarcoma 180; 0.25 mg/Kg i.v. days 1 to 5,4/19
same,Toxic deaths,solid sarcoma 180; 0.5 mg/Kg i.v. days 1 to 5,9/9
same,inhibition of tumor growth on the eleventh day vs adriamycin,solid sarcoma 180; equitoxic doses,slightly lower than that of adriamycin
same,LTS (long term survivors),Gross leukemia; 0.35 mg/Kg i.v. days 1 to 3,2/20
same,"T/C % (median survival time, % over untreated controls)",Gross leukemia; 0.35 mg/Kg i.v. days 1 to 3,153%
same,Toxic deaths,Gross leukemia; 0.35 mg/Kg i.v. days 1 to 3,0/10
same,LTS (long term survivors),Gross leukemia; 0.45 mg/Kg i.v. days 1 to 3,0/20
same,"T/C % (median survival time, % over untreated controls)",Gross leukemia; 0.45 mg/Kg i.v. days 1 to 3,196%
same,Toxic deaths,Gross leukemia; 0.45 mg/Kg i.v. days 1 to 3,0/20
same,LTS (long term survivors),Gross leukemia; 0.55 mg/Kg i.v. days 1 to 3,0/10
same,"T/C % (median survival time, % over untreated controls)",Gross leukemia; 0.55 mg/Kg i.v. days 1 to 3,186%
same,Toxic deaths,Gross leukemia; 0.55 mg/Kg i.v. days 1 to 3,0/10
same,LTS (long term survivors),Gross leukemia; 0.6 mg/Kg i.v. days 1 to 3,0/10
same,"T/C % (median survival time, % over untreated controls)",Gross leukemia; 0.6 mg/Kg i.v. days 1 to 3,214%
same,Toxic deaths,Gross leukemia; 0.6 mg/Kg i.v. days 1 to 3,1/10
same,LTS (long term survivors),Gross leukemia; 0.65 mg/Kg i.v. days 1 to 3,0/10
same,"T/C % (median survival time, % over untreated controls)",Gross leukemia; 0.65 mg/Kg i.v. days 1 to 3,207%
same,Toxic deaths,Gross leukemia; 0.65 mg/Kg i.v. days 1 to 3,0/10
same,increase in life span vs adriamycin,Gross leukemia; equitoxic doses,similar
same,in vitro activity compared with adriamycin,several in vitro systems,definitely more active than adriamycin
same,antitumor activity,[3]; all the systems tested,"remarkable antitumor activity; also recorded: higher antitumor activity in mice, similar to adriamycin"
same,factor by which active doses are lower than those of adriamycin,[3]; mice,10 times
"COc1cccc2c1C(=O)c1c(O)c3c(c(O)c1C2=O)C[C@@](O)(C(=O)CO)C[C@@H]3O[C@H]1C[C@H](N)[C@H](O)[C@H](C)O1 [Adriamycin, adriamycin]",IC50,"Hela cells; read-out: ID50, cloning efficiency of Hela cells, 8 (hours) treatment, Table 6",28 ng/mL
same,IC50,"Hela cells; read-out: ID50, cloning efficiency of Hela cells, 24 (hours) treatment, Table 6",12.5 ng/mL
same,IC50,[1]; [4],0.01 ng/mL
same,CC50 at 72 h,"[2]; 72 (hours) treatment, Table 6, read-out: ID50, inhibition of mouse embryo fibroblasts proliferation",0.026 ng/mL
same,LTS (long term survivors),Ascites Sarcoma 180,1/10
same,"T/C % (average survival time, % of untreated)",Ascites Sarcoma 180,250%
same,LTS (long term survivors at 60 days),L 1210 leukemia; 2.5 mg/Kg i.p. day 1,4/11
same,"T/C % (median survival time, % over untreated controls)",L 1210 leukemia; 2.5 mg/Kg i.p. day 1,155%
same,Toxic deaths,L 1210 leukemia; 2.5 mg/Kg i.p. day 1,0/11
same,LTS (long term survivors at 60 days),L 1210 leukemia; 5 mg/Kg i.p. day 1,1/11
same,"T/C % (median survival time, % over untreated controls)",L 1210 leukemia; 5 mg/Kg i.p. day 1,166%
same,Toxic deaths,L 1210 leukemia; 5 mg/Kg i.p. day 1,1/11
same,LTS (long term survivors at 60 days),L 1210 leukemia; 10 mg/Kg i.p. day 1,3/11
same,"T/C % (median survival time, % over untreated controls)",L 1210 leukemia; 10 mg/Kg i.p. day 1,155%
same,Toxic deaths,L 1210 leukemia; 10 mg/Kg i.p. day 1,7/11
same,LTS (long term survivors at 60 days),P 388 leukemia; 2.5 mg/Kg i.p. day 1,0/10
same,"T/C % (median survival time, % over untreated controls)",P 388 leukemia; 2.5 mg/Kg i.p. day 1,150%
same,Toxic deaths,P 388 leukemia; 2.5 mg/Kg i.p. day 1,0/10
same,LTS (long term survivors at 60 days),P 388 leukemia; 5 mg/Kg i.p. day 1,0/10
same,"T/C % (median survival time, % over untreated controls)",P 388 leukemia; 5 mg/Kg i.p. day 1,162%
same,Toxic deaths,P 388 leukemia; 5 mg/Kg i.p. day 1,0/10
same,LTS (long term survivors at 60 days),P 388 leukemia; 10 mg/Kg i.p. day 1,1/10
same,"T/C % (median survival time, % over untreated controls)",P 388 leukemia; 10 mg/Kg i.p. day 1,200%
same,Toxic deaths,P 388 leukemia; 10 mg/Kg i.p. day 1,0/10
same,"T/C % (tumor weight on day 11, % over untreated controls)",solid sarcoma 180; 2 mg/Kg i.v. days 1 to 5,22.2%
same,Toxic deaths,solid sarcoma 180; 2 mg/Kg i.v. days 1 to 5,3/19
same,"T/C % (tumor weight on day 11, % over untreated controls)",solid sarcoma 180; 2.5 mg/Kg i.v. days 1 to 5,13.5%
same,Toxic deaths,solid sarcoma 180; 2.5 mg/Kg i.v. days 1 to 5,11/18
same,LTS (long term survivors),Gross leukemia; 3.5 mg/Kg i.v. days 1 to 3,0/20
same,"T/C % (median survival time, % over untreated controls)",Gross leukemia; 3.5 mg/Kg i.v. days 1 to 3,164%
same,Toxic deaths,Gross leukemia; 3.5 mg/Kg i.v. days 1 to 3,0/20
same,LTS (long term survivors),Gross leukemia; 4.5 mg/Kg i.v. days 1 to 3,0/20
same,"T/C % (median survival time, % over untreated controls)",Gross leukemia; 4.5 mg/Kg i.v. days 1 to 3,182%
same,Toxic deaths,Gross leukemia; 4.5 mg/Kg i.v. days 1 to 3,0/20
same,LTS (long term survivors),Gross leukemia; 5.5 mg/Kg i.v. days 1 to 3,1/10
same,"T/C % (median survival time, % over untreated controls)",Gross leukemia; 5.5 mg/Kg i.v. days 1 to 3,200%
same,Toxic deaths,Gross leukemia; 5.5 mg/Kg i.v. days 1 to 3,1/10
same,LTS (long term survivors),Gross leukemia; 6 mg/Kg i.v. days 1 to 3,0/10
same,"T/C % (median survival time, % over untreated controls)",Gross leukemia; 6 mg/Kg i.v. days 1 to 3,214%
same,Toxic deaths,Gross leukemia; 6 mg/Kg i.v. days 1 to 3,3/10
COc1cccc2c1C(=O)c1c(O)c3c(c(O)c1C2=O)C[C@@](O)(C(C)=O)C[C@@H]3O[C@H]1C[C@H](N)[C@H](O)[C@H](C)O1 [Daunomycin],IC50,"Hela cells; 2 h, read-out: ID50 (action on Hela cells), 2 hours treatment, Table 1",17000 ng/mL
same,IC50,"Hela cells; 8 h, read-out: ID50 (action on Hela cells), 8 hours treatment, Table 1",8500 ng/mL
same,IC50,"Hela cells; 24 h, read-out: ID50 (action on Hela cells), 24 hours treatment, Table 1",6800 ng/mL
same,IC50,[1]; read-out: Antiviral action ID50,3 ng/mL
same,CC50 at 72 h,"[2]; uninfected MEF, three days treatment, Table 2, read-out: Cytotoxic action ID50",16 ng/mL
